Measured values as given in patent US11225505B2, “Antimicrobial polymyxin derivative compounds” (MONASH UNIVERSITY, priority 2015, dated 2022).
Values after ≈ are worked out from the molar mass of the structure shown. Where a SMILES comes first, the peptide text is derived from it. Bridges are numbered along the chain shown (N, C = ends). [ ]: non-standard residue; d: D form. The star is where a group is joined. Quinoline3carbonyl = O=C(c1cnc2ccccc2c1)*; X24 = O=C(c1cccc(C(F)(F)F)n1)*; X11 = Cn1nc(C(=O)*)c2ccccc21; X22 = Cn1c(C(=O)*)cc2ccccc21; X69 = Cn1c(C(=O)*)nc2ccccc21; dNle = CCCC[C@@H](N)C(=O)O; X1 = O=C(c1ncc(Cl)cc1Cl)*; X29 = O=C(c1cc(Cl)ccn1)*; Dab = NCC[C@H](N)C(=O)O; Abu = CC[C@H](N)C(=O)O; Dap = NC[C@H](N)C(=O)O

Legend:
Format in all cases: cell-based
[1] = system: Acinetobacter baumannii ATCC 17978; settings: ATCC 17978
Experimental: (§1) MICs of the lipopeptides (trifluoroacetic acid salt, TFA) were determined by broth microdilution in cation-adjusted Mueller-Hinton broth (CAMHB) (Oxoid Australia, Thebarton, SA, Australia) according to the Clinical and Laboratory Standards Institute protocol (Clinical and Laboratory Standards Institute, Performance standards for antimicrobial susceptibility testing; twentyforth informational supplement M100-S24. Wayne, Pa., 2014). Polymyxin B sulphate was employed as the control. Antimicrobial activity of Compounds 1-104 against polymyxin-susceptible Gram-negative bacteria was examined. The following isolates were examined: Pseudomonas aeruginosa ATCC 27853, Pseudomonas aeruginosa FADDI-PA022*, Pseudomonas aeruginosa FADDI-PA01*, Pseudomonas aeruginosa FADDI-PA038*, Acinetobacter baumannii FADDI-AB034*, Acinetobacter baumannii ATCC 17978, Acinetobacter baumannii FADDI-AB030*, Klebsiella pneumoniae FADDI-KP032, Klebsiella pneumoniae FADDI-KP022*, Klebsiella pneumoniae Kp BM1*, Enterobacter cloacae FADDI-EC006, Enterobacter cloacae FADDI-EC001, and Enterobacter cloacae FADDI-EC003 (* Multi drug-resistant clinical isolates, § New Delhi Metallo-beta-lactamase-1 (NDM-1) producing). The results are illustrated in Tables 4 and 5.

[2] = system: Acinetobacter baumannii FADDI-AB034; settings: FADDI-AB034
Experimental: as §1

[3] = system: Enterobacter cloacae FADDI-EC001; settings: FADDI-EC001
Experimental: as §1

[4] = system: Enterobacter cloacae FADDI-EC003; settings: FADDI-EC003
Experimental: as §1

[5] = system: Enterobacter cloacae FADDI-EC006; settings: FADDI-EC006
Experimental: as §1

[6] = system: Klebsiella pneumoniae FADDI-KP022; settings: FADDI-KP022
Experimental: as §1

[7] = system: Klebsiella pneumoniae FADDI-KP032; settings: FADDI-KP032
Experimental: as §1

[8] = system: Klebsiella pneumoniae Kp BM1; settings: Kp BM1
Experimental: as §1

[9] = system: Pseudomonas aeruginosa ATCC 27853; settings: ATCC 27853
Experimental: as §1

[10] = system: Pseudomonas aeruginosa FADDI-PA01; settings: FADDI-
Experimental: as §1

[11] = system: Pseudomonas aeruginosa FADDI-PA022; settings: FADDI-PA022
Experimental: as §1

[12] = system: Pseudomonas aeruginosa FADDI-PA038; settings: FADDI-PA038
Experimental: as §1

[13] = system: Acinetobacter baumannii FADDI-AB030; assay: microbe, parasite or virus in culture; settings: FADDI-AB030
Experimental: as §1, with “Antimicrobial activity of Compounds 1-104 against polymyxin-susceptible Gram-negative bacteria was examined.” left out, “5. […]” for “5.”

## C[C@@H]1NC(=O)[C@@H](Cc2ccccc2)NC(=O)[C@H](CCN)NC(=O)[C@@H](NC(=O)[C@H](CN)NC(=O)[C@@H](NC(=O)[C@H](CCN)NC(=O)c2ncc(Cl)cc2Cl)[C@@H](C)O)CCNC(=O)[C@H]([C@@H](C)O)NC(=O)[C@H](CCN)NC(=O)[C@H](CCN)NC1=O [Compound 9] (X1-[Dab]T[Dap][Dab][Dab][dF]A[Dab][Dab]T; lactam 4-C)
[1]
  Minimum inhibitory concentration: 2 µg/mL (≈ 1.69 µM)
[2]
  Minimum inhibitory concentration: 2 µg/mL (≈ 1.69 µM)
[3]
  Minimum inhibitory concentration: <0.125 µg/mL
[4]
  Minimum inhibitory concentration: <0.125 µg/mL
[5]
  Minimum inhibitory concentration: 1 µg/mL (≈ 0.847 µM)
[6]
  Minimum inhibitory concentration: <0.125 µg/mL
[7]
  Minimum inhibitory concentration: 0.25 µg/mL (≈ 0.212 µM)
[8]
  Minimum inhibitory concentration: 0.25 µg/mL (≈ 0.212 µM)
[9]
  Minimum inhibitory concentration: 0.25 µg/mL (≈ 0.212 µM)
[10]
  Minimum inhibitory concentration: 0.25 µg/mL (≈ 0.212 µM)
[11]
  Minimum inhibitory concentration: 0.25 µg/mL (≈ 0.212 µM)
[12]
  Minimum inhibitory concentration: 0.5 µg/mL (≈ 0.423 µM)
[13]
  Minimum inhibitory concentration: 2 µg/mL (≈ 1.69 µM)

## CC[C@@H]1NC(=O)[C@@H](CC(C)C)NC(=O)[C@H](CCN)NC(=O)[C@@H](NC(=O)[C@H](CN)NC(=O)[C@@H](NC(=O)[C@H](CCN)NC(=O)c2cccc(C(F)(F)F)n2)[C@@H](C)O)CCNC(=O)[C@H]([C@@H](C)O)NC(=O)[C@H](CCN)NC(=O)[C@H](CCN)NC1=O [Compound 44] (X24-[Dab]T[Dap][Dab][Dab][dL][Abu][Dab][Dab]T; lactam 4-C)
[1]
  Minimum inhibitory concentration: 2 µg/mL (≈ 1.72 µM)
[2]
  Minimum inhibitory concentration: 2 µg/mL (≈ 1.72 µM)
[3]
  Minimum inhibitory concentration: <0.125 µg/mL
[4]
  Minimum inhibitory concentration: <0.125 µg/mL
[5]
  Minimum inhibitory concentration: 0.5 µg/mL (≈ 0.431 µM)
[6]
  Minimum inhibitory concentration: <0.125 µg/mL
[7]
  Minimum inhibitory concentration: <0.125 µg/mL
[8]
  Minimum inhibitory concentration: <0.125 µg/mL
[9]
  Minimum inhibitory concentration: <0.125 µg/mL
[10]
  Minimum inhibitory concentration: <0.125 µg/mL
[11]
  Minimum inhibitory concentration: 0.25 µg/mL (≈ 0.215 µM)
[12]
  Minimum inhibitory concentration: 0.5 µg/mL (≈ 0.431 µM)
[13]
  Minimum inhibitory concentration: 1 µg/mL (≈ 0.862 µM)

## CC[C@@H]1NC(=O)[C@@H](CC(C)C)NC(=O)[C@H](CCN)NC(=O)[C@@H](NC(=O)[C@H](CN)NC(=O)[C@@H](NC(=O)[C@H](CCN)NC(=O)c2nc3ccccc3n2C)[C@@H](C)O)CCNC(=O)[C@H]([C@@H](C)O)NC(=O)[C@H](CCN)NC(=O)[C@H](CCN)NC1=O [Compound 57] (X69-[Dab]T[Dap][Dab][Dab][dL][Abu][Dab][Dab]T; lactam 4-C)
[1]
  Minimum inhibitory concentration: 0.5 µg/mL (≈ 0.437 µM)
[2]
  Minimum inhibitory concentration: 0.5 µg/mL (≈ 0.437 µM)
[3]
  Minimum inhibitory concentration: <0.125 µg/mL
[4]
  Minimum inhibitory concentration: 0.25 µg/mL (≈ 0.218 µM)
[5]
  Minimum inhibitory concentration: 1 µg/mL (≈ 0.873 µM)
[6]
  Minimum inhibitory concentration: <0.125 µg/mL
[7]
  Minimum inhibitory concentration: <0.125 µg/mL
[8]
  Minimum inhibitory concentration: 0.25 µg/mL (≈ 0.218 µM)
[9]
  Minimum inhibitory concentration: 0.5 µg/mL (≈ 0.437 µM)
[10]
  Minimum inhibitory concentration: 0.25 µg/mL (≈ 0.218 µM)
[11]
  Minimum inhibitory concentration: 0.5 µg/mL (≈ 0.437 µM)
[12]
  Minimum inhibitory concentration: 0.5 µg/mL (≈ 0.437 µM)
[13]
  Minimum inhibitory concentration: 0.25 µg/mL (≈ 0.218 µM)

## CC[C@@H]1NC(=O)[C@@H](CC(C)C)NC(=O)[C@H](CCN)NC(=O)[C@@H](NC(=O)[C@H](CN)NC(=O)[C@@H](NC(=O)[C@H](CCN)NC(=O)c2nn(C)c3ccccc23)[C@@H](C)O)CCNC(=O)[C@H]([C@@H](C)O)NC(=O)[C@H](CCN)NC(=O)[C@H](CCN)NC1=O [Compound 51] (X11-[Dab]T[Dap][Dab][Dab][dL][Abu][Dab][Dab]T; lactam 4-C)
[1]
  Minimum inhibitory concentration: 0.25 µg/mL (≈ 0.218 µM)
[2]
  Minimum inhibitory concentration: 0.25 µg/mL (≈ 0.218 µM)
[3]
  Minimum inhibitory concentration: <0.125 µg/mL
[4]
  Minimum inhibitory concentration: 0.25 µg/mL (≈ 0.218 µM)
[5]
  Minimum inhibitory concentration: 0.5 µg/mL (≈ 0.437 µM)
[6]
  Minimum inhibitory concentration: <0.125 µg/mL
[7]
  Minimum inhibitory concentration: <0.125 µg/mL
[8]
  Minimum inhibitory concentration: <0.125 µg/mL
[9]
  Minimum inhibitory concentration: 0.25 µg/mL (≈ 0.218 µM)
[10]
  Minimum inhibitory concentration: 0.25 µg/mL (≈ 0.218 µM)
[11]
  Minimum inhibitory concentration: 0.25 µg/mL (≈ 0.218 µM)
[12]
  Minimum inhibitory concentration: 1 µg/mL (≈ 0.873 µM)
[13]
  Minimum inhibitory concentration: <0.125 µg/mL

## CC(C)C[C@H]1NC(=O)[C@H](CCN)NC(=O)[C@@H](NC(=O)[C@H](CN)NC(=O)[C@@H](NC(=O)[C@H](CCN)NC(=O)c2cc3ccccc3n2C)[C@@H](C)O)CCNC(=O)[C@H]([C@@H](C)O)NC(=O)[C@H](CCN)NC(=O)[C@H](CCN)NC(=O)[C@H](C)NC1=O [Compound 65] (X22-[Dab]T[Dap][Dab][Dab][dL]A[Dab][Dab]T; lactam 4-C)
[1]
  Minimum inhibitory concentration: 1 µg/mL (≈ 0.885 µM)
[2]
  Minimum inhibitory concentration: 1 µg/mL (≈ 0.885 µM)
[3]
  Minimum inhibitory concentration: 0.5 µg/mL (≈ 0.442 µM)
[4]
  Minimum inhibitory concentration: 1 µg/mL (≈ 0.885 µM)
[5]
  Minimum inhibitory concentration: 1 µg/mL (≈ 0.885 µM)
[6]
  Minimum inhibitory concentration: 0.25 µg/mL (≈ 0.221 µM)
[7]
  Minimum inhibitory concentration: 0.5 µg/mL (≈ 0.442 µM)
[8]
  Minimum inhibitory concentration: 0.25 µg/mL (≈ 0.221 µM)
[9]
  Minimum inhibitory concentration: 0.5 µg/mL (≈ 0.442 µM)
[10]
  Minimum inhibitory concentration: 0.25 µg/mL (≈ 0.221 µM)
[11]
  Minimum inhibitory concentration: 0.25 µg/mL (≈ 0.221 µM)
[12]
  Minimum inhibitory concentration: 0.5 µg/mL (≈ 0.442 µM)
[13]
  Minimum inhibitory concentration: 0.5 µg/mL (≈ 0.442 µM)

## CCCC[C@H]1NC(=O)[C@H](CCN)NC(=O)[C@@H](NC(=O)[C@H](CN)NC(=O)[C@@H](NC(=O)[C@H](CCN)NC(=O)c2cc(Cl)ccn2)[C@@H](C)O)CCNC(=O)[C@H]([C@@H](C)O)NC(=O)[C@H](CCN)NC(=O)[C@H](CCN)NC(=O)[C@H](CC)NC1=O [Compound 95] (X29-[Dab]T[Dap][Dab][Dab][dNle][Abu][Dab][Dab]T; lactam 4-C)
[1]
  Minimum inhibitory concentration: 0.25 µg/mL (≈ 0.222 µM)
[2]
  Minimum inhibitory concentration: 0.25 µg/mL (≈ 0.222 µM)
[3]
  Minimum inhibitory concentration: <0.125 µg/mL
[4]
  Minimum inhibitory concentration: 0.25 µg/mL (≈ 0.222 µM)
[5]
  Minimum inhibitory concentration: <0.125 µg/mL
[6]
  Minimum inhibitory concentration: 0.25 µg/mL (≈ 0.222 µM)
[7]
  Minimum inhibitory concentration: <0.125 µg/mL
[8]
  Minimum inhibitory concentration: 0.5 µg/mL (≈ 0.444 µM)
[9]
  Minimum inhibitory concentration: 0.25 µg/mL (≈ 0.222 µM)
[10]
  Minimum inhibitory concentration: <0.125 µg/mL
[11]
  Minimum inhibitory concentration: 0.25 µg/mL (≈ 0.222 µM)
[12]
  Minimum inhibitory concentration: 1 µg/mL (≈ 0.888 µM)
[13]
  Minimum inhibitory concentration: 0.25 µg/mL (≈ 0.222 µM)

## CC[C@@H]1NC(=O)[C@@H](CC(C)C)NC(=O)[C@H](CCN)NC(=O)[C@@H](NC(=O)[C@H](CN)NC(=O)[C@@H](NC(=O)[C@H](CCN)NC(=O)c2cnc3ccccc3c2)[C@@H](C)O)CCNC(=O)[C@H]([C@@H](C)O)NC(=O)[C@H](CCN)NC(=O)[C@H](CCN)NC1=O [Compound 52] (Quinoline3carbonyl-[Dab]T[Dap][Dab][Dab][dL][Abu][Dab][Dab]T; lactam 4-C)
[1]
  Minimum inhibitory concentration: 2 µg/mL (≈ 1.75 µM)
[2]
  Minimum inhibitory concentration: 1 µg/mL (≈ 0.875 µM)
[3]
  Minimum inhibitory concentration: <0.125 µg/mL
[4]
  Minimum inhibitory concentration: 0.5 µg/mL (≈ 0.438 µM)
[5]
  Minimum inhibitory concentration: 1 µg/mL (≈ 0.875 µM)
[6]
  Minimum inhibitory concentration: <0.125 µg/mL
[7]
  Minimum inhibitory concentration: <0.125 µg/mL
[8]
  Minimum inhibitory concentration: 0.5 µg/mL (≈ 0.438 µM)
[9]
  Minimum inhibitory concentration: 0.5 µg/mL (≈ 0.438 µM)
[10]
  Minimum inhibitory concentration: 0.5 µg/mL (≈ 0.438 µM)
[11]
  Minimum inhibitory concentration: 0.5 µg/mL (≈ 0.438 µM)
[12]
  Minimum inhibitory concentration: 0.25 µg/mL (≈ 0.219 µM)
[13]
  Minimum inhibitory concentration: 0.5 µg/mL (≈ 0.438 µM)
